Like-named read-outs stand apart in the source and are kept apart here.
Key:
EGFR L858R/C797S = EGFR L858R/C797S (Homo sapiens, UniProt P00533, C797S/L858R); assay: Biochemical EGFR kinase assay (Lance Ultra TR-FRET), double mutant L858R/C797S
Procedure, shortened: (§1)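 Enzyme reactions lasted 1 hour at room temperature with test compounds between 0.003 and 10 μM, followed by 10 mM EDTA quench.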

EGFR L858R/T790M/C797S = EGFR L858R/T790M/C797S (Homo sapiens, UniProt P00533, C797S/L858R/T790M); assay: Biochemical EGFR kinase assay (Lance Ultra TR-FRET), triple mutant L858R/T790M/C797S
Sequence of EGFR L858R/T790M/C797S (P00533 25-1210 T790M/C797S/L858R): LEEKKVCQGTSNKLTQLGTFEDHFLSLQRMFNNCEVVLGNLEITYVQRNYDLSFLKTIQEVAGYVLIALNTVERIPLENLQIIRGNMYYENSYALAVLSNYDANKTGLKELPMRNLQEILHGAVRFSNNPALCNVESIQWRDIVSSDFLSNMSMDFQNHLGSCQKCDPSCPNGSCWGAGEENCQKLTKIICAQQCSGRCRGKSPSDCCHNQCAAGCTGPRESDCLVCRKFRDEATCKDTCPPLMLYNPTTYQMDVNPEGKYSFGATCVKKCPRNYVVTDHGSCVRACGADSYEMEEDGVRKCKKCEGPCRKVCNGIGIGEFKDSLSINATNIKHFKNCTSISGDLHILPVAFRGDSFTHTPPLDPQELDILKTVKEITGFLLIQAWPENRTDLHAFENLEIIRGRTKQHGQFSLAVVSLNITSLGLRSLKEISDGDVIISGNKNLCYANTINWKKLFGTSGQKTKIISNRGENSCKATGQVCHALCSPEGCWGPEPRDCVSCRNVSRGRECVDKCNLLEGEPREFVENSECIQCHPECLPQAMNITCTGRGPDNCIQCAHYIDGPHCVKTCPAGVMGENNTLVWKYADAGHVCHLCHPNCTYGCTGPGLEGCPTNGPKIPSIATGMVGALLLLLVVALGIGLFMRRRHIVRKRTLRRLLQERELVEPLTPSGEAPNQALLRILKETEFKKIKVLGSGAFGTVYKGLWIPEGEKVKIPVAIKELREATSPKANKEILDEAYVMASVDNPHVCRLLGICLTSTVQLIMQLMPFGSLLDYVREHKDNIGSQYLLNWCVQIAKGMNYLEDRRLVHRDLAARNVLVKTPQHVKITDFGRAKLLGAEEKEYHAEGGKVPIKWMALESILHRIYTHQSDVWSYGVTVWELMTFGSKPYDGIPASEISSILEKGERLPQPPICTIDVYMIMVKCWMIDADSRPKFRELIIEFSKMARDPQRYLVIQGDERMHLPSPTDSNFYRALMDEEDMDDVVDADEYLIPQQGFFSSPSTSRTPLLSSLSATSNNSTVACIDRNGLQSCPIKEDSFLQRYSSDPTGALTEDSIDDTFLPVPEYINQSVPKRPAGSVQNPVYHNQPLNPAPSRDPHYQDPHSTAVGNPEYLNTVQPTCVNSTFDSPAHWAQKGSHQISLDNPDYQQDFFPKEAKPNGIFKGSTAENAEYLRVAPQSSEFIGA
Procedure, shortened: as §1

EGFR del19/C797S = EGFR del19/C797S (Homo sapiens, UniProt P00533, C797S/DEL746-750); assay: Biochemical EGFR kinase assay (Lance Ultra TR-FRET), double mutant del19/C797S
Sequence of EGFR del19/C797S (P00533 with tags, fused parts or gaps DEL746-750/C797S): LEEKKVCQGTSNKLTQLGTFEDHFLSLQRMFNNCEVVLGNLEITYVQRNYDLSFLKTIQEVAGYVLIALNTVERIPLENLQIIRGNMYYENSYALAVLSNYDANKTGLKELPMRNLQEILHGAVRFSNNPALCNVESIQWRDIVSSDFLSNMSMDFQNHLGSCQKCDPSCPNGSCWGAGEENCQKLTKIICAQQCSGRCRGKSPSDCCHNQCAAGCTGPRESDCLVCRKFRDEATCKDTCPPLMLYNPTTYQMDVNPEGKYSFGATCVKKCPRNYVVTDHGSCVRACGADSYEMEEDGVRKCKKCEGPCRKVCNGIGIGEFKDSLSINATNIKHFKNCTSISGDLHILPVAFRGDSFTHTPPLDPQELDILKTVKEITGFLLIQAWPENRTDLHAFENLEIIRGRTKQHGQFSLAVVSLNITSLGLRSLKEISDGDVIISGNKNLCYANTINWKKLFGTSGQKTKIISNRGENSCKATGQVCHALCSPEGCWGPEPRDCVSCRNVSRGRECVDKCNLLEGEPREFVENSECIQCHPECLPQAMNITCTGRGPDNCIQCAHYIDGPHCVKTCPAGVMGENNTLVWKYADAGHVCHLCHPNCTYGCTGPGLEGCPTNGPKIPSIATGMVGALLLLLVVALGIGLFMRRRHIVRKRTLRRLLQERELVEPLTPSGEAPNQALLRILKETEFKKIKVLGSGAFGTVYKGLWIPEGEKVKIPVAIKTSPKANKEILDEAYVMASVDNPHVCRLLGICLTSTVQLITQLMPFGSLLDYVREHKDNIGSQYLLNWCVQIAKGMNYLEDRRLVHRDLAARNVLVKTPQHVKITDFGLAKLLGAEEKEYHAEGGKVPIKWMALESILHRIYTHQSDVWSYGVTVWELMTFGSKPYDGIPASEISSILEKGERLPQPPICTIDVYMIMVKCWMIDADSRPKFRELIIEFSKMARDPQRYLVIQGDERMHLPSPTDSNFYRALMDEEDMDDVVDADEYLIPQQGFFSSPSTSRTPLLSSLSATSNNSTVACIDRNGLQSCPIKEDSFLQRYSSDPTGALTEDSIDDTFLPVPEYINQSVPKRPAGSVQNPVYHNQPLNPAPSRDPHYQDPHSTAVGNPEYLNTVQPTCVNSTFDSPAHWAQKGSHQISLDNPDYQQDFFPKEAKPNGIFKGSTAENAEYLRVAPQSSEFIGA
Procedure, shortened: as §1

EGFR del19/T790M/C797S = EGFR del19/T790M/C797S (Homo sapiens, UniProt P00533, C797S/DEL746-750/T790M); assay: Biochemical EGFR kinase assay (Lance Ultra TR-FRET), triple mutant del19/T790M/C797S
Sequence of EGFR del19/T790M/C797S (P00533 with tags, fused parts or gaps DEL746-750/T790M/C797S): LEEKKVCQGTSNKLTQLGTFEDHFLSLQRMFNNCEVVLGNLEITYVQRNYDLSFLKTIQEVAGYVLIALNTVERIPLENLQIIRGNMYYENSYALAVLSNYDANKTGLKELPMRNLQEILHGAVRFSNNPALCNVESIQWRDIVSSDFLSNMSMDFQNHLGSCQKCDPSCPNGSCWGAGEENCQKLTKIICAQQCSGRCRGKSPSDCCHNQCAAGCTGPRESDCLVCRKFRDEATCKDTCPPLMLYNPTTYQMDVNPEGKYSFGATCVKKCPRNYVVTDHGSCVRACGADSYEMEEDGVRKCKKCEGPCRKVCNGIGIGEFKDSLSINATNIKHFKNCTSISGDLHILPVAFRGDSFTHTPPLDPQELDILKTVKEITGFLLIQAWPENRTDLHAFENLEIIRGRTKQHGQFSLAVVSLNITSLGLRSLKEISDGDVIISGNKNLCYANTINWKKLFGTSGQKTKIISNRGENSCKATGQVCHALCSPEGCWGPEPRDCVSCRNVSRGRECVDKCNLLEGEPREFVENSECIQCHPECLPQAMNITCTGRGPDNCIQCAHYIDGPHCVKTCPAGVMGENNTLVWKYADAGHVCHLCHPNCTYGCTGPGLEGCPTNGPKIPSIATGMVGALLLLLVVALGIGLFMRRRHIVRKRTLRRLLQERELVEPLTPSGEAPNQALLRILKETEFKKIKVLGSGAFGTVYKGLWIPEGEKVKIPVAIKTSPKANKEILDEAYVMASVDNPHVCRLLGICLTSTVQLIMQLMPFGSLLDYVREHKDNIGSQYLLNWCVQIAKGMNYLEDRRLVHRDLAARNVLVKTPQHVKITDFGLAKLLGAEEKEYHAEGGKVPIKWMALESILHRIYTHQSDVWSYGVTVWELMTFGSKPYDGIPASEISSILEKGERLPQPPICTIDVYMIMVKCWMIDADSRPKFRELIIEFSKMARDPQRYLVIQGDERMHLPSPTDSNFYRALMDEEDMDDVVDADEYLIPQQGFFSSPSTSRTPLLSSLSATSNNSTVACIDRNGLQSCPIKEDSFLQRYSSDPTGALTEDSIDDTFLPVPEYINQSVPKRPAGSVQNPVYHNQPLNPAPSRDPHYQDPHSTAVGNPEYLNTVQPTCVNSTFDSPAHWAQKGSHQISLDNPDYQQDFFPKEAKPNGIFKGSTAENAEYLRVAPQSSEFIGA
Procedure, shortened: as §1

EGFR wildtype (WT) = EGFR wildtype (WT) (Homo sapiens, UniProt P00533); assay: Biochemical EGFR kinase assay (Lance Ultra TR-FRET), wildtype
Procedure, shortened: as §1

[1] = IC50 L858R/C797S (nM) 100 μM ATP, 100 μM ATP
[2] = Km ATP, read-out: IC50 L858R/C797S (nM) Km ATP
[3] = IC50 L858R/T790M/C797S (nM) 100 μM ATP, 100 μM ATP
[4] = Km ATP, read-out: IC50 L858R/T790M/C797S (nM) Km ATP
[5] = IC50 del19/C797S (nM) 100 μM ATP, 100 μM ATP
[6] = Km ATP, read-out: IC50 del19/C797S (nM) Km ATP
[7] = IC50 del19/T790M/C797S (nM) 100 μM ATP, 100 μM ATP
[8] = Km ATP, read-out: IC50 del19/T790M/C797S (nM) Km ATP
[9] = IC50 WT (nM) 100 μM ATP, 100 μM ATP
[10] = Km ATP, read-out: IC50 WT (nM) Km ATP

Sequence of EGFR L858R/C797S (P00533 25-1210 C797S/L858R): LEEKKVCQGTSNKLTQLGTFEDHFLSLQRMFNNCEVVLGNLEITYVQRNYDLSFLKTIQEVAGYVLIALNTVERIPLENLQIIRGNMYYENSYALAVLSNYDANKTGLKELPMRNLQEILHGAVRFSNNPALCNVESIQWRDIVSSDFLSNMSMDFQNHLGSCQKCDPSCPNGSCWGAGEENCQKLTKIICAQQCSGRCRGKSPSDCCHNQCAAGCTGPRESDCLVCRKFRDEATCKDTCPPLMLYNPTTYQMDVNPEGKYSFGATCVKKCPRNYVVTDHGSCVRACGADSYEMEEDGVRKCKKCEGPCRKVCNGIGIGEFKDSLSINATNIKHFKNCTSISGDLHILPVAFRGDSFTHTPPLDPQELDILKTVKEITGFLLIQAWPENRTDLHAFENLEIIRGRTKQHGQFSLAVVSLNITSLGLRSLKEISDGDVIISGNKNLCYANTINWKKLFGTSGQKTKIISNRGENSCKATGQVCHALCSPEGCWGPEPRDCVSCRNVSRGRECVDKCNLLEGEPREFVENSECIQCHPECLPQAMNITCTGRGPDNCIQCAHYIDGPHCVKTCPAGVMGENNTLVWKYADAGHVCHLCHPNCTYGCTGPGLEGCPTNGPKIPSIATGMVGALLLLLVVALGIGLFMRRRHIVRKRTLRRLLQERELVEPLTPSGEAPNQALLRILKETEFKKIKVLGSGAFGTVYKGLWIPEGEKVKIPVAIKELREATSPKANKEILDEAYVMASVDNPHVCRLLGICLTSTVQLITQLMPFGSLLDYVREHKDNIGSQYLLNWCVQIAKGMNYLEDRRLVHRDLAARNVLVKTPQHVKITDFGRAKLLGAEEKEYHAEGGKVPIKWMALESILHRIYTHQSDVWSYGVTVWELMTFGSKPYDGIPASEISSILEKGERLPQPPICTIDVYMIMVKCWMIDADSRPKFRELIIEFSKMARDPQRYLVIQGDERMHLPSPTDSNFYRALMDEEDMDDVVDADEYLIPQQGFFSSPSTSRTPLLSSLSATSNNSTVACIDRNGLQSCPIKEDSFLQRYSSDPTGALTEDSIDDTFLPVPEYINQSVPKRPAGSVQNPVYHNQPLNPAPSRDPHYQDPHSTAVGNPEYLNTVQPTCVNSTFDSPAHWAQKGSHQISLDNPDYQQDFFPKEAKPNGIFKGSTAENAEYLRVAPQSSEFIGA

Row | SMILES | IC50 (EGFR L858R/C797S; [1]) [nM] | IC50 (EGFR L858R/C797S; [2]) [nM] | IC50 (EGFR L858R/T790M/C797S; [3]) [nM] | IC50 (EGFR L858R/T790M/C797S; [4]) [nM] | IC50 (EGFR del19/C797S; [5]) [nM] | IC50 (EGFR del19/C797S; [6]) [nM] | IC50 (EGFR del19/T790M/C797S; [7]) [nM] | IC50 (EGFR del19/T790M/C797S; [8]) [nM] | IC50 (EGFR wildtype (WT); [9]) [nM] | IC50 (EGFR wildtype (WT); [10]) [nM] | IC50 (EGFR L858R/C797S; read-out: IC50 L858R/C797S (nM) 100 μM ATP, 100 μM ATP) [nM] | IC50 (EGFR L858R/T790M/C797S; read-out: IC50 L858R/T790M/C797S (nM) 100 μM ATP, 100 μM ATP) [nM] | IC50 (EGFR del19/C797S; read-out: IC50 del19/C797S (nM) 100 μM ATP, 100 μM ATP) [nM] | IC50 (EGFR del19/T790M/C797S; read-out: IC50 del19/T790M/C797S (nM) 100 μM ATP, 100 μM ATP) [nM] | IC50 (EGFR wildtype (WT); read-out: IC50 WT (nM) 100 μM ATP, 100 μM ATP) [nM] | IC50 (EGFR L858R/C797S; Km ATP, read-out: IC50 L858R/C797S, Km ATP) [nM] | IC50 (EGFR L858R/T790M/C797S; Km ATP, read-out: IC50 L858R/T790M/C797S, Km ATP) [nM] | IC50 (EGFR del19/C797S; Km ATP, read-out: IC50 del19/C797S, Km ATP) [nM] | IC50 (EGFR del19/T790M/C797S; Km ATP, read-out: IC50 del19/T790M/C797S, Km ATP) [nM] | IC50 (EGFR wildtype (WT); Km ATP, read-out: IC50 WT, Km ATP) [nM]
1 | Cn1ccc(-c2cnc(Nc3ccnc(-c4cnn(S(=O)(=O)C5CC5)c4)n3)cc2N[C@H]2CC[C@](O)(C(F)F)CC2)n1 [Example 231, (1s,4s)-4-((2-((2-(1-(Cyclopropylsulfonyl)-1H-pyrazol-4-yl)pyrimidin-4-yl)amino)-5-(1-methyl-1H-pyrazol-3-yl)pyridin-4-yl)amino)-1-(difluoromethyl)cyclohexan-1-ol] | 11.5 | 3.1 | 0.7 | 0.3 | 2 | 2.4 | 0.5 | 0.3 | > 10000 | 37.3 | – | – | – | – | – | – | – | – | – | –
2 | O=S(=O)(C1CC1)n1cc(-c2nccc(Nc3cc(N[C@H]4CC[C@@H](CN5CCC5)CC4)c(-c4ccn(CC(F)(F)F)n4)cn3)n2)cn1 [Example 272, N^4-((1s,4s)-4-(Azetidin-1-ylmethyl)cyclohexyl)-N^2-(2-(1-(cyclopropylsulfonyl)-1H-pyrazol-4-yl)pyrimidin-4-yl)-5-(1-(2,2,2-trifluoroethyl)-1H-pyrazol-3-yl)pyridine-2,4-diamine] | 1.1 | 0.4 | 0.2 | 0.1 | 0.5 | 23.9 | 0.5 | 0.3 | 325 | 1.4 | – | – | – | – | – | – | – | – | – | –
3 | CC1CC(Nc2cc(Nc3ccnc(-c4cnn(S(=O)(=O)C5CC5)c4)n3)ncc2-c2ccn(C(F)F)n2)CCC1O (stereo not drawn) [Example 105, 4-((2-((2-(1-(Cyclopropylsulfonyl)-1H-pyrazol-4-yl)pyrimidin-4-yl)amino)-5-(1-(difluoromethyl)-1H-pyrazol-3-yl)pyridin-4-yl)amino)-2-methylcyclohexan-1-ol] | 1100 | 50.7 | 4.8 | 2.5 | 73 | 48.2 | 6.2 | 7.7 | > 10000 | 73.2 | – | – | – | – | – | – | – | – | – | –
4 | Cn1ccc(-c2cnc(Nc3ccnc(-c4cnn(S(=O)(=O)C5CC5)c4)n3)cc2N[C@H]2CC[C@](O)(C(F)(F)F)CC2)n1 [Example 94, (1s,4s)-4-((2-((2-(1-(Cyclopropylsulfonyl)-1H-pyrazol-4-yl)pyrimidin-4-yl)amino)-5-(1-methyl-1H-pyrazol-3-yl)pyridin-4-yl)amino)-1-(trifluoromethyl)cyclohexan-1-ol] | – | – | – | – | – | – | – | – | – | – | 58.1 | 4 | 54.1 | 3.4 | > 10000 | – | – | – | – | –
5 | O=S(=O)(C1CC1)n1cc(-c2nccc(Nc3cc(OC4CCC(O)CC4)c(-c4cnn(C(F)F)c4)cn3)n2)cn1 (stereo not drawn) [Example 71, 4-((2-((2-(1-(Cyclopropylsulfonyl)-1H-pyrazol-4-yl)pyrimidin-4-yl)amino)-5-(1-(difluoromethyl)-1H-pyrazol-4-yl)pyridin-4-yl)oxy)cyclohexan-1-ol] | 42.3 | 2.6 | 0.8 | 0.1 | 1.7 | 3.4 | 0.2 | 0.2 | > 10000 | 26 | – | – | – | – | – | – | – | – | – | –
6 | O=S(=O)(C1CC1)n1cc(-c2nccc(Nc3cc(N[C@H]4CC[C@](O)(CO)CC4)c(-c4csc(N5CCOCC5)n4)cn3)n2)cn1 [Example 125, (1s,4s)-4-((2-((2-(1-(Cyclopropylsulfonyl)-1H-pyrazol-4-yl)pyrimidin-4-yl)amino)-5-(2-morpholinothiazol-4-yl)pyridin-4-yl)amino)-1-(hydroxymethyl)cyclohexan-1-ol] | 218 | 10.8 | – | 0.4 | 18.5 | 20.4 | – | 0.7 | > 10000 | 144 | – | – | – | – | – | – | – | – | – | –
7 | O=S(=O)(C1CC1)n1cc(-c2nccc(Nc3cc(NCC4CC5(CNC5)C4)c(-c4ccn(C(F)F)n4)cn3)n2)cn1 [Example 26, N^4-((2-Azaspiro[3.3]heptan-6-yl)methyl)-N^2-(2-(1-(cyclopropylsulfonyl)-1H-pyrazol-4-yl)pyrimidin-4-yl)-5-(1-(difluoromethyl)-1H-pyrazol-3-yl)pyridine-2,4-diamine] | 26.5 | 2.3 | 0.3 | 0.1 | 1.8 | 1.3 | 0.2 | 0.1 | 3740 | 6.7 | – | – | – | – | – | – | – | – | – | –
8 | CC1(O)CCC(Oc2cc(Nc3ccnc(-c4cnn(S(=O)(=O)C5CC5)c4)n3)ncc2-c2ccn(C(F)F)n2)CC1 (stereo not drawn) [Example 68, 4-((2-((2-(1-(Cyclopropylsulfonyl)-1H-pyrazol-4-yl)pyrimidin-4-yl)amino)-5-(1-(difluoromethyl)-1H-pyrazol-3-yl)pyridin-4-yl)oxy)-1-methylcyclohexan-1-ol] | 55.9 | 6.3 | 1.7 | 0.2 | 6.1 | 7.3 | 0.6 | 0.5 | > 10000 | 95.8 | – | – | – | – | – | – | – | – | – | –
9 | O=S(=O)(C1CC1)n1cc(-c2nccc(Nc3cc(NCC4CCC(NCCF)CC4)c(-c4ccn(C(F)F)n4)cn3)n2)cn1 (stereo not drawn) [Example 132, N^2-(2-(1-(Cyclopropylsulfonyl)-1H-pyrazol-4-yl)pyrimidin-4-yl)-5-(1-(difluoromethyl)-1H-pyrazol-3-yl)-N^4-((4-((2-fluoroethyl)amino)cyclohexyl)methyl)pyridine-2,4-diamine] | 2.3 | 0.8 | 0.5 | 0.1 | 1.1 | 0.5 | 0.4 | 0.3 | 4690 | 5.2 | – | – | – | – | – | – | – | – | – | –
10 | Cn1ccc(-c2cnc(Nc3ccnc(-c4cnn(S(=O)(=O)C5CC5)c4)n3)cc2N[C@H]2CC[C@@H](N(C)C)CC2)n1 [Example 124, N^2-(2-(1-(Cyclopropylsulfonyl)-1H-pyrazol-4-yl)pyrimidin-4-yl)-N^4-((1s,4s)-4-(dimethylamino)cyclohexyl)-5-(1-methyl-1H-pyrazol-3-yl)pyridine-2,4-diamine] | 9.6 | 0.5 | 0.1 | 0.1 | 0.6 | 0.4 | 0.2 | 0.1 | 801 | 1.1 | – | – | – | – | – | – | – | – | – | –
11 | Cc1nn(CC(F)(F)F)cc1-c1nccc(Nc2cc(N[C@H]3CC[C@@H](CCO)CC3)c(-c3cc(C(F)(F)F)n(C)n3)cn2)n1 [Example 334, 2-((1s,4s)-4-((2-((2-(3-Methyl-1-(2,2,2-trifluoroethyl)-1H-pyrazol-4-yl)pyrimidin-4-yl)amino)-5-(1-methyl-5-(trifluoromethyl)-1H-pyrazol-3-yl)pyridin-4-yl)amino)cyclohexyl)ethan-1-ol] | – | – | – | – | – | – | – | – | – | – | – | – | – | – | – | 17.1 | 2.8 | 41.2 | 4.2 | 24.6
12 | O=S(=O)(C1CC1)n1cc(-c2nccc(Nc3cc(NC[C@H]4CC[C@H](CO)CC4)c(-c4ccn(C(F)F)n4)cn3)n2)cn1 [Example 22, ((1r,4r)-4-(((2-((2-(1-(Cyclopropylsulfonyl)-1H-pyrazol-4-yl)pyrimidin-4-yl)amino)-5-(1-(difluoromethyl)-1H-pyrazol-3-yl)pyridin-4-yl)amino)methyl)cyclohexyl)methanol] | 21.5 | 4.4 | 1.2 | 0.4 | 2.1 | – | 1.1 | 0.9 | > 10000 | 22.4 | – | – | – | – | – | – | – | – | – | –
13 | Cn1nc(-c2cnc(Nc3ccnc(-c4cnn(S(=O)(=O)C5CC5)c4)n3)cc2N[C@H]2CC[C@@H](F)CC2)cc1C(F)(F)F [Example 175, N^2-(2-(1-(Cyclopropylsulfonyl)-1H-pyrazol-4-yl)pyrimidin-4-yl)-N^4-((1s,4s)-4-fluorocyclohexyl)-5-(1-methyl-5-(trifluoromethyl)-1H-pyrazol-3-yl)pyridine-2,4-diamine] | – | 8 | – | 14.5 | – | 41.8 | – | 25.3 | – | 91.9 | – | – | – | – | – | – | – | – | – | –
14 | CN(C)C(=O)n1cc(-c2nccc(Nc3cc(N[C@H]4CC[C@@](C)(O)CC4)c(-c4ccn(C(F)F)n4)cn3)n2)cn1 [Example 311, 4-(4-((5-(1-(Difluoromethyl)-1H-pyrazol-3-yl)-4-(((1s,4s)-4-hydroxy-4-methylcyclohexyl)amino)pyridin-2-yl)amino)pyrimidin-2-yl)-N,N-dimethyl-1H-pyrazole-1-carboxamide] | 1020 | – | 25.6 | – | 30.1 | – | 3.5 | – | > 10000 | – | – | – | – | – | – | – | – | – | – | –

— US12258327B2, “5-membered heteroaryl-containing aminopyridine compounds as EGFR inhibitors” (YUHAN CORPORATION, priority 2021, dated 2025)
